System: Male Long Evans rats
Assay: V-maze test (PCP-disrupted visual-spatial working memory)
Assay type: in vivo, rat
Settings: p.o. 4 h before test
From the text: The V-maze-test is a two-trial short term visual-spatial working memory task based on spontaneous exploration of a new and a familiar arm in a 2-arm maze (Embrechts et al. (2013) “Longitudinal characterization of the TauPS2APP mouse model of Alzheimer's disease in a two trial discrimination task of visuo-spatial recognition memory”, 45th European Brain and Behaviour Society Meeting 6-9 Sep. 2013, Munich, Abstract P202).
Male Long Evans rats (Janvier, France, body weight 280 to 295 g) were group housed in enriched individually ventilated cages and habituated to environmental conditions for 5 days. After acclimatization, animals were single housed for 4 days until testing. During this period animals were handled for 2 min per day and received sham dosing once a day for 3 days prior to the test. The V-maze consisted of two arms (L×W×H: 70×10×30 cm) at a 90° angle to each other to form a V-shaped maze connected by guillotine doors to a center zone. […] The animal's exploration of each arm was automatically quantified using Ethovision XT 7.0 (Noldus, The Netherlands). […] The time spent in the familiar and new arm respectively during the choice session was recorded for 5 min.
Co. No. 1 was evaluated in rats in a series of dose-response studies evaluating doses from 0.16 to 10 mg/kg. […]

`Cc1cc(-c2cnn3c2C(=O)N(c2ccc(C(F)(F)F)cc2)C[C@@H]3C)ccn1` [compound 1, (7S)-7-Methyl-3-(2-methylpyridin-4-yl)-5-[4-(trifluoromethyl)phenyl]-6,7-dihydropyrazolo[1,5-a]pyrazin-4(5H)-one] was tested, and the “reversal effect against PCP observed up to the highest dose tested” value (PCP 0.75 mg/kg s.c.) was ≤ 10 mg/kg and the “doses at which PCP-challenged rats showed again a clear preference for the new arm” value (PCP 0.75 mg/kg s.c. 30 min prior, doses 0.16 to 10 mg/kg evaluated) was ≥ 0.32 mg/kg.

Reference: patent US10106542B2, “Substituted 6,7-dihydropyrazolo[1,5-a]pyrazines as negative allosteric modulators of mGluR2 receptors” (Janssen Pharmaceutica NV, priority 2013, dated 2018)
